From patent US9023789B2, “Amylin analogs and pharmaceutical compositions thereof” (Novo Nordisk A/S, priority 2012, dated 2015) come the findings set out here.

Numbered stars: 1 amine (or outer) side, 2 acyl side, 3 side chain; on linkers, the order of the positions; unused ones are H or OH. Bridge positions count the residues as written; N and C are the ends. Side chains are listed from the residue outwards. Peptide text beside a SMILES is read from it. * marks the point of attachment. C20 diacid = O=C(O)CCCCCCCCCCCCCCCCCCC(=O)*; γGlu = O=C(O)[C@H](CCC(=O)[*:2])N[*:1]

A short description of data set [1]: ASSAY (III) ThT fibrillation assay for physical stability. It counts as physicochemical. An outline of the steps: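 Formulations with 1 μM ThT, pH adjusted as required, incubated at 37 °C with 960 rpm orbital shaking; fluorescence (ex 444/em 485 nm) read every 20 min. Fibrillation reported as mean ThT fluorescence ± SD of 4–8 replicates at time points; polypeptide concentration measured by reverse-phase HPLC before and after, post-centrifugation.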

Data set [2] deals with T1, rat amylin receptor (rat calcitonin receptor + rat RAMP 3) (Rattus norvegicus, UniProt P32214+Q9JJ73).
T1 construct: expressed in transfected cells; host or cells: BHK tk'ts 13 (transient, FuGENE 6), membranes
T1 sequence (P32214 25-479 isoform P32214-2 limits assumed): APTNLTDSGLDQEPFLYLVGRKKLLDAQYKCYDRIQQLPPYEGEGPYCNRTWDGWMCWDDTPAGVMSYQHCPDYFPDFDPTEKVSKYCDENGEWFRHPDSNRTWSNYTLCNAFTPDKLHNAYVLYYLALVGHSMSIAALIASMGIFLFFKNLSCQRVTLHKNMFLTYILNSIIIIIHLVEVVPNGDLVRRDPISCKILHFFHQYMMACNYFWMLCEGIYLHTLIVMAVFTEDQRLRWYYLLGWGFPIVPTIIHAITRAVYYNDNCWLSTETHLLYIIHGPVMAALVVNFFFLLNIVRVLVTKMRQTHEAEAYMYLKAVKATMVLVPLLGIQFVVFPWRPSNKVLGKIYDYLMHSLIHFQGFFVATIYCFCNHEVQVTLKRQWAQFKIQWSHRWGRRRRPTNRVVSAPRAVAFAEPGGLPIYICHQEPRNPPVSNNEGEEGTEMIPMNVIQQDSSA
T1 sequence (Q9JJ73 23-147 partner): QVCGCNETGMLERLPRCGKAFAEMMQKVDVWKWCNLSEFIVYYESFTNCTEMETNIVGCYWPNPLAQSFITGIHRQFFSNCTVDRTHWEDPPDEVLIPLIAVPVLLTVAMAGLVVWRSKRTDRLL
In words: ASSAY (VI) binding to the rat amylin receptor. To be noted: for IC50: binding to rat amylin receptor, read-out: rAmylin-R bind IC50. An outline of the steps: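 This assay measured binding to the rat amylin receptor. BHK tk′ts 13 cells were transiently transfected with the rat calcitonin receptor using FuGENE® 6 (Roche), following the manufacturer's recommendations. About 48 hours after transfection, the cells were harvested and membranes were prepared from them for the binding determination.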

Setting [3] is: Table 7, rat binding selectivity, rCTR IC50 / rAmylin-R IC50.
[4] abbreviates: Table 7a (preferred compounds), rat binding selectivity, rCTR IC50 / rAmylin-R IC50.
Where [5] appears, read: ratio of rCTR bind IC50 to rAmylin-R bind IC50.

By IC50 is commonly meant the midpoint of a concentration-inhibition curve. `CC[C@H](C)[C@H](NC(=O)[C@H](C)NC(=O)CNC(=O)[C@H](Cc1ccccc1)NC(=O)[C@H](CC(N)=O)NC(=O)[C@@H]1CCCN1C(=O)[C@H](CO)NC(=O)[C@H](CO)NC(=O)[C@H](Cc1c[nH]cn1)NC(=O)[C@H](CCCNC(=N)N)NC(=O)[C@H](CC(C)C)NC(=O)[C@H](Cc1ccccc1)NC(=O)[C@H](Cc1c[nH]cn1)NC(=O)[C@H](C)NC(=O)[C@H](CC(C)C)NC(=O)[C@H](CCCNC(=N)N)NC(=O)[C@H](CCC(N)=O)NC(=O)[C@@H](NC(=O)[C@H](C)NC(=O)[C@@H]1CSSC[C@H](NC(=O)[C@@H](N)CCCCNC(=O)CC[C@H](NC(=O)CCCCCCCCCCCCCCCCCCC(=O)O)C(=O)O)C(=O)N[C@@H](CC(N)=O)C(=O)N[C@@H]([C@@H](C)O)C(=O)N[C@@H](C)C(=O)N[C@@H]([C@@H](C)O)C(=O)N1)[C@@H](C)O)C(=O)N1CCC[C@H]1C(=O)N[C@@H](CO)C(=O)N[C@@H](CO)C(=O)N[C@H](C(=O)N1CCC[C@H]1C(=O)N[C@H](C(=O)NCC(=O)N1CCC[C@H]1C(=O)N[C@@H](CC(N)=O)C(=O)N[C@H](C(=O)N[C@@H](Cc1ccc(O)cc1)C(N)=O)[C@@H](C)O)C(C)C)[C@@H](C)O` [Example 116] (H-K([γGlu-C20 diacid])CNTATCATQRLAHFLRHSSPNFGAIPSSTPVGPNTY-NH2; disulfide 2-7): in data set [1], the “ThT pH 4.0 lag time (h)” value was determined as 45 h. Also, the IC50 in data set [2] (Table 7) is 0.125 nM. Also, the “Ratio rCT/rAmylin binding” value in data set [2] (setting [3]), in data set [2] (setting [4]) and in data set [2] (setting [5]) was 72.4 throughout.
For `CC[C@H](C)[C@H](NC(=O)[C@H](C)NC(=O)CNC(=O)[C@H](Cc1ccccc1)NC(=O)[C@H](CC(N)=O)NC(=O)[C@@H]1CCCN1C(=O)[C@H](CO)NC(=O)[C@H](CO)NC(=O)[C@H](Cc1c[nH]cn1)NC(=O)[C@H](CCCNC(=N)N)NC(=O)[C@H](CC(C)C)NC(=O)[C@H](Cc1ccccc1)NC(=O)[C@H](CCC(=O)O)NC(=O)[C@H](C)NC(=O)[C@H](CC(C)C)NC(=O)[C@H](CCCNC(=N)N)NC(=O)[C@H](CCC(N)=O)NC(=O)[C@@H](NC(=O)[C@H](C)NC(=O)[C@@H]1CSSC[C@H](NC(=O)[C@@H](N)CCCCNC(=O)CC[C@H](NC(=O)CC[C@H](NC(=O)CCCCCCCCCCCCCCCCCCC(=O)O)C(=O)O)C(=O)O)C(=O)N[C@@H](CC(N)=O)C(=O)N[C@@H]([C@@H](C)O)C(=O)N[C@@H](C)C(=O)N[C@@H]([C@@H](C)O)C(=O)N1)[C@@H](C)O)C(=O)N1CCC[C@H]1C(=O)N[C@@H](CO)C(=O)N[C@@H](CO)C(=O)N[C@H](C(=O)N[C@@H](CC(N)=O)C(=O)N[C@H](C(=O)NCC(=O)N[C@@H](CO)C(=O)N[C@@H](CCCNC(=N)N)C(=O)N[C@H](C(=O)N[C@@H](Cc1ccc(O)cc1)C(N)=O)[C@@H](C)O)C(C)C)[C@@H](C)O` [Example 89] (H-K([γGlu-γGlu-C20 diacid])CNTATCATQRLAEFLRHSSPNFGAIPSSTNVGSRTY-NH2; disulfide 2-7 (inferred); N-terminus assumed), the “ThT pH 4.0 lag time (h)” value in data set [1] is 43 h. The concentration for half-maximal inhibition (IC50) in data set [2] (Table 7) is 2.37 nM. In addition, the “Ratio rCT/rAmylin binding” value in data set [2] (setting [3]), in data set [2] (setting [4]) and in data set [2] (setting [5]) was 48.8 throughout.
